The source of these data is ChEMBL document CHEMBL4184288, “Marine bis-γ-pyrone polypropionates of onchidione family and their effects on the XBP1 gene expression” (Bioorg Med Chem Lett, 2018).

Calls of active or inactive are those of the source. No cut-off for these calls is given here.

Experiment [1] is filed under the species Mus musculus. Description: Activation of XBP1 mRNA splicing in tunicamycin-stimulated mouse B16F10 cells harboring XBP1-DBD-luc at 1 ug/ml after 8 hrs by luciferase reporter gene assay relative to control. In general terms: Reporter assays use an easily measured gene product as a stand-in for the process of interest.
For experiment [2], the species on record is Mus musculus. Briefly: Activation of XBP1 mRNA splicing in tunicamycin-stimulated mouse B16F10 cells harboring XBP1-DBD-luc at 10 ug/ml treated 24 hrs post tunicamycin measured after 8 hrs by luciferase reporter gene assay relative to control.
For experiment [3], the species on record is Mus musculus. Description: Activation of XBP1 mRNA splicing in tunicamycin-stimulated mouse B16F10 cells harboring XBP1-DBD-luc treated 24 hrs post tunicamycin measured after 8 hrs by luciferase reporter gene assay relative to control.

As for `CCCCCCCCCCCCC/C=C/C(=O)N[C@H]1[C@H](O[C@H]2O[C@H](CO)[C@@H](O)[C@H](O)[C@H]2NC(C)=O)O[C@H](CC(O)[C@H]2O[C@@H](n3ccc(=O)[nH]c3=O)[C@H](O)[C@@H]2O)[C@H](O)[C@@H]1O` (some centres undefined), in experiment [1], the Activity is 178%.

In experiment [2], `CCC(=O)[C@@H](C)c1oc([C@H](C)[C@@H]2O[C@](O)([C@@H](C)c3oc(CC)c(C)c(=O)c3C)[C@@H](C)[C@@H](OC(=O)CC(C)C)[C@@H]2C)c(C)c(=O)c1C` registered an Activity of 218% and a fold change (FC) of 2. Regarding `CCC(=O)O[C@@H](CC)[C@H](C)c1oc([C@H](C)[C@@H]2O[C@](O)([C@@H](C)c3oc(CC)c(C)c(=O)c3C)[C@@H](C)[C@@H](OC(=O)CC(C)C)[C@@H]2C)c(C)c(=O)c1C`, the result in experiment [3] was inactive.

In experiment [2], `CCC(=O)[C@H](C)c1oc([C@H](C)[C@@H]2O[C@](O)([C@@H](C)c3oc(CC)c(C)c(=O)c3C)[C@@H](C)[C@@H](OC(=O)CC(C)C)[C@@H]2C)c(C)c(=O)c1C` displayed an Activity of 210% and a fold change (FC) of 2. As for `CCc1oc([C@H](C)[C@@]2(O)O[C@@H]([C@@H](C)c3oc([C@@H](C)[C@@H](O)CC)c(C)c(=O)c3C)[C@@H](C)[C@H](OC(=O)CC(C)C)[C@@H]2C)c(C)c(=O)c1C`, the outcome in experiment [3] was inactive. In experiment [2], `CCc1oc([C@H](C)[C@@]2(O)O[C@@H]([C@@H](C)c3oc([C@@H](C)[C@H](CC)OC(C)=O)c(C)c(=O)c3C)[C@@H](C)[C@H](OC(=O)CC(C)C)[C@@H]2C)c(C)c(=O)c1C` showed an Activity of 234% and a fold change (FC) of 2.
